Source: patent publication US20020035061A1, “COMPOSITIONS AND METHODS FOR TREATING INFECTIONS USING CATIONIC PEPTIDES ALONE OR IN COMBINATION WITH ANTIBIOTICS” (priority 1996, published 2002)
Converted amounts (≈) assume the structure as drawn. Where two headings read alike, the source gives them in different places.

Legend:
[1] = Single dose toxicity, intraperitoneal injection, formulations; conditions: mouse, in vivo, ip, outbred ICR mice (Table 32)
Experimental: The single dose toxicity of a cationic peptide and antibiotic agent combination is examined in outbred ICR mice. Intraperitoneal injection of the combination in isotonic saline is carried out at increasing dose levels. The survival of the animals is monitored for 7 days. The number of animals surviving at each dose level is used to determine the maximum tolerated dose (MTD). In addition, the MTD can be determined after administration of the peptide and agent by different routes, at different time points, and in different formulations.

[2] = Cell death by Cytotox (Promega) lactate dehydrogenase release; assay type: cell-based; conditions: LDH release
Experimental: In addition, APO-peptides and parent peptides are tested against a panel of cancer cell lines. Cell death is measured using the Cytotox (Promega) assay kit which measures the release of lactate dehydrogenase.
PBL, peripheral blood lymphocytes; HUVEC, human umbilical vein endothelial cells; H460,non-small lung tumor; K562, chronic myelogenous leukemia; DoHH-2, B-cell cell lymphoma; P388, lymphocytic leukemia; P388ADR, lymphocytic leukemia, multidrug resistant; MCF-7, breast carcinoma; MCF-7ADR, breast carcinoma, multidrug resistant.

[3] = system: mammalian red blood cells; conditions: 37° C., 1 hour
Experimental: Candidate cationic peptides may be further tested for their toxicity to normal mammalian cells. An exemplary assay is a red blood cell (RBC) (erythrocyte) hemolysis assay. Briefly, in this assay, red blood cells are isolated from whole blood, typically by centrifugation, and washed free of plasma components. A 5% (v/v) suspension of erythrocytes in isotonic saline is incubated with different concentrations of peptide analogue. […] After incubation for approximately 1 hour at 37° C., the cells are centrifuged, and the absorbance of the supernatant at 540 nm is determined. A relative measure of lysis is determined by comparison to absorbance after complete lysis of erythrocytes using NH4Cl or equivalent (establishing a 100% value). A peptide with <10% lysis at 100 μg/ml is suitable. Preferably, there is <5% lysis at 100 μg/ml. Such peptides that are not lytic, or are only moderately lytic, are desirable and suitable for further screening.
Cationic peptides are tested for toxicity towards eukaryotic cells by measuring the extent of lysis of mammalian red blood cells (RBC). Briefly, in this assay, red blood cells are separated from whole blood by centrifugation and washed free of plasma components. A 5% (v/v) washed red blood cell suspension is prepared in isotonic saline. An aliquot of peptide in formulation is then added and mixed in. After incubation at 37° C. for 1 hour with constant agitation, the solution is centrifuged and the supernatant measured for absorbance at 540 nm to detect released hemoglobin.
A combination of cationic peptide and antibiotic agent is tested for toxicity towards eukaryotic cells by measuring the extent of lysis of mammalian red blood cells. Briefly, red blood cells are separated from whole blood by centrifugation, washed free of plasma components, and resuspended to a 5% (v/v) suspension in isotonic saline. […] Following incubation with constant agitation at 37° C. for 1 hour, the solution is centrifuged, and the absorbance of the supernatant is measured at 540 nm, which detects released hemoglobin. […]

`CC[C@H](C)[C@H](NC(=O)[C@H](CC(C)C)NC(=O)[C@H](C)NC(=O)[C@@H]1CCCN1C(=O)[C@H](CC(C)C)NC(=O)CNC(=O)[C@@H](NC(=O)[C@@H](NC(=O)[C@H](CC(C)C)NC(=O)[C@@H](NC(=O)[C@H](CCCCN)NC(=O)[C@H](CCCCN)NC(=O)[C@@H](NC(=O)[C@H](C)NC(=O)[C@@H](NC(=O)[C@@H](NC(=O)[C@H](CC(C)C)NC(=O)[C@H](CCCCN)NC(=O)[C@H](CCCCN)NC(=O)[C@@H](NC(=O)[C@H](Cc1ccccc1)NC(=O)[C@H](CO)NC(=O)[C@H](CCCCN)NC(=O)[C@H](Cc1c[nH]c2ccccc12)NC(=O)[C@@H](N)CCCCN)[C@@H](C)CC)[C@@H](C)O)[C@@H](C)O)C(C)C)C(C)C)[C@@H](C)O)[C@@H](C)O)C(=O)N[C@@H](CO)C(=O)O` [MBI 29] showed an MTD at 7 days [1] of 24 mg/kg, a CC50 ([2]; DoHH-2 B-cell lymphoma cells, read-out: LC50 ± S.E., DoHH-2) of 2.1 ± 0.5 µg/mL (≈ 0.731 µM) and a CC50 ([2]; H460 non-small lung tumor cells, read-out: LC50 ± S.E., H460) of 12.6 ± 10 µg/mL (≈ 4.39 µM). It also gave a CC50 ([2]; K562, read-out: LC50 ± S.E., K562) of 1 µg/mL (≈ 0.348 µM), a CC50 ([2]; MCF-7ADR multidrug resistant breast carcinoma cells, read-out: LC50 ± S.E., MCF-7 ADR) of 3.2 ± 1 µg/mL (≈ 1.11 µM) and a CC50 ([2]; MCF-7 breast carcinoma cells, read-out: LC50 ± S.E., MCF-7) of 4 ± 2 µg/mL (≈ 1.39 µM). For the same compound, the CC50 ([2]; P388, read-out: LC50 ± S.E., P388) was 1.4 ± 0.5 µg/mL (≈ 0.487 µM), the CC50 ([2]; P388 ADR, read-out: LC50 ± S.E., P388 ADR) was 2 ± 0.2 µg/mL (≈ 0.696 µM) and the CC50 ([2]; PBL, peripheral blood lymphocytes, read-out: LC50 ± S.E., PBL) was 12 ± 10 µg/mL (≈ 4.18 µM). For the same compound, the CC50 ([2]; human, human umbilical vein endothelial cells (HUVEC), read-out: LC50 ± S.E., HUVEC) was 10 µg/mL (≈ 3.48 µM) and the “% Lysis” value [3] was 1.9%.
